Patent publication US20180072997A1, “INHIBITORS OF HUMAN IMMUNODEFICIENCY VIRUS REPLICATION” (ViiV HEATHCARE UK (NO.5) LIMITED, priority 2015, published 2018)

Assays:
[1] = system: recombinant NL4-3 virus (Renilla luciferase in nef) in MT-2 cells; experiment: whole plant or invertebrate; type: cell-based, HIV; conditions: Renilla, NL43, MT-2 cells infected for 4-5 days with recombinant NL4-3 Renilla luciferase virus; luciferase activity
In short: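 MT-2 cells infected for 4-5 days with NL4-3 reporter virus (Renilla luciferase replacing part of nef, produced by transfection of 293T cells) in the presence of serial compound dilutions. Antiviral activity quantified by luciferase activity read with a live-cell substrate.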

[2] = Compound cytotoxicity, XTT-based colorimetric assay; type: cell-based; conditions: human, uninfected MT2 cells, day 4, XTT
In short: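 Run under the antiviral-assay protocol but without virus. Viability was read on day 4 and CC50 values were derived from the readout.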

| SMILES | EC50 [1] [µM] | CC50 at 4 days [2] [µM] |
| --- | --- | --- |
| COc1ccc(N(C)C(=O)[C@H](Cc2cc(F)cc(F)c2)NC(=O)Cn2c(=O)c(=O)n(CC(=O)N[C@@H](Cc3cc(F)cc(F)c3)C(=O)N(C)c3ccc(OC)cc3)c3ccccc32)cc1 [Example 98] | 0.03 | 11.2 |
| COc1ccc(N(C)C(=O)[C@H](Cc2cc(F)cc(F)c2)NC(=O)Cn2c(=O)n(CC(=O)N[C@@H](Cc3cc(F)cc(F)c3)C(=O)N(C)c3ccc(OC)cc3)c3c(Cl)cccc32)cc1 [Example 74] | 0.03 | 11.3 |
| CN(C(=O)[C@H](Cc1ccccc1)Nc1ncc(-c2cnc(N[C@@H](Cc3ccccc3)C(=O)N(C)c3ccc4scnc4c3)nc2)cn1)c1ccc2scnc2c1 [Example 136] | 0.34 | ≥ 100 |
| C=CCN(C(=O)[C@H](Cc1cc(F)cc(F)c1)NC(=O)NS(=O)(=O)N[C@@H](Cc1cc(F)cc(F)c1)C(=O)N(CC=C)c1ccc2nccnc2c1)c1ccc2nccnc2c1 [Example 213] | 8.21 | ≥ 100 |
| CN(C(=O)[C@H](Cc1ccccc1)Nc1nccc(-c2ccnc(N[C@@H](Cc3ccccc3)C(=O)N(C)c3ccc4scnc4c3)n2)n1)c1ccc2scnc2c1 [Example 135] | 0.09 | 0.5 |
| NC(=O)c1cc(-c2cccnc2[C@H](Cc2cc(F)cc(F)c2)NC(=O)NS(=O)(=O)N[C@@H](Cc2cc(F)cc(F)c2)c2ncccc2-c2ccc(F)c(C(N)=O)c2)ccc1F [Example 70] | 0.15 | ≥ 100 |
| CC#CCN(C(=O)[C@H](Cc1cc(F)cc(F)c1)NC(=O)c1cc(F)c(F)cc1C(=O)N[C@@H](Cc1cc(F)cc(F)c1)C(=O)N(CC#CC)c1ccc(OC)cc1)c1ccc(OC)cc1 [Example 234] | 6.83 | 95.3 |
| COc1ccc(N(C)C(=O)[C@H](Cc2ccccc2)NC(=O)CN2c3ccccc3N(CC(=O)N[C@@H](Cc3ccccc3)C(=O)N(C)c3ccc(OC)cc3)S2(=O)=O)cc1 [Example 27] | 0.04 | ≥ 100 |
| COc1ccc(N(C)C(=O)[C@H](Cc2ccccc2)NC(=O)Cc2cccc(CC(=O)N[C@@H](Cc3ccccc3)C(=O)N(C)c3ccc(OC)cc3)c2)cc1 [Example 42] | 0.85 | 40.7 |
| CN(C(=O)[C@H](Cc1cc(F)cc(F)c1)NC(=O)NS(=O)(=O)N[C@@H](Cc1cc(F)cc(F)c1)C(=O)N(C)c1ccc(OC(F)F)nc1)c1ccc(OC(F)F)nc1 [Example 214] | 0.01 | 43.8 |
| CN(C(=O)[C@H](Cc1cc(F)cc(F)c1)NC(=O)NS(=O)(=O)N[C@@H](Cc1cc(F)cc(F)c1)C(=O)N(C)c1ccc(=O)n(C)c1)c1ccc(=O)n(C)c1 [Example 174] | 100 | ≥ 100 |
| C=CCN(C(=O)[C@H](Cc1cc(F)cc(F)c1)NC(=O)c1ccncc1C(=O)N[C@@H](Cc1cc(F)cc(F)c1)C(=O)N(CC=C)c1ccc(OC)cc1)c1ccc(OC)cc1 [Example 211] | 3.92 | 14 |
| CN(C(=O)[C@H](Cc1cc(F)cc(F)c1)NC(=O)NS(=O)(=O)N[C@@H](Cc1cc(F)cc(F)c1)C(=O)N(C)c1ccc2scnc2c1)c1ccc2scnc2c1 [Example 18] | 0.03 | 85.3 |
| CN(C(=O)[C@H](Cc1cc(F)cc(F)c1)NC(=O)c1ccc(F)c(C(=O)N[C@@H](Cc2cc(F)cc(F)c2)C(=O)N(C)c2ccc(C3CC3)cc2)c1)c1ccc(C2CC2)cc1 [Example 230] | 0.02 | ≥ 100 |
| COc1ccc(N(C)C(=O)[C@H](Cc2ccccc2)NC(=O)c2cc(C(=O)N[C@@H](Cc3ccccc3)C(=O)N(C)c3ccc(OC)cc3)cc(C(C)(C)C)c2)cc1 [Example 103] | 0.15 | ≥ 33.3 |
| COc1ccc(-n2ccnc2C(Cc2ccccc2)NC(=O)CN2c3ccccc3N(CC(=O)N[C@@H](Cc3ccccc3)c3nccn3-c3ccc(OC)cc3)S2(=O)=O)cc1 (some centres unmarked) [Example 166] | 6.7 | ≥ 100 |
| COc1ccc(N(C)C(=O)[C@H](Cc2ccccc2)NC(=O)NS(=O)(=O)N[C@H](Cc2ccccc2)C(=O)N(C)c2ccc(OC)cc2)cc1 [Example 11] | 0.47 | ≥ 33.3 |
| C=CCN(C(=O)[C@H](Cc1cc(F)cc(F)c1)NC(=O)c1cc(F)c(F)cc1C(=O)N[C@@H](Cc1cc(F)cc(F)c1)C(=O)N(CC=C)c1ccc(OC)cc1)c1ccc(OC)cc1 [Example 192] | 7.24 | 58.2 |
| Cc1ccc(N(C)C(=O)[C@H](Cc2cc(F)cc(F)c2)NC(=O)CN2c3ccccc3N(CC(=O)N[C@@H](Cc3cc(F)cc(F)c3)C(=O)N(C)c3ccc(C)nc3)S2(=O)=O)cn1 [Example 195] | 0.02 | 54 |

| SMILES | EC50 [1] [µM] | CC50 at 4 days [2] [µM] |
| --- | --- | --- |
| CCc1ncc(N(C)C(=O)[C@H](Cc2cc(F)cc(F)c2)NC(=O)c2ccc(F)c(C(=O)N[C@@H](Cc3cc(F)cc(F)c3)C(=O)N(C)c3cnc(CC)nc3)c2)cn1 [Example 206] | 14.5 | ≥ 33.3 |
| COc1ccc(N(C)C(=O)[C@H](Cc2ccccc2)NC(=O)CCSCCC(=O)N[C@@H](Cc2ccccc2)C(=O)N(C)c2ccc(OC)cc2)cc1 [Example 41] | 0.1 | 23 |
| CN(C(=O)[C@H](Cc1ccccc1)NC(=O)NS(=O)(=O)N[C@@H](Cc1ccccc1)C(=O)N(C)c1ccccc1)c1ccccc1 [Example 85] | 0.97 | ≥ 100 |
| COc1ccc(N(C)C(=O)[C@H](Cc2ccccc2)NC(=O)c2cc(C(=O)N[C@@H](Cc3ccccc3)C(=O)N(C)c3ccc(OC)cc3)ncn2)cc1 [Example 112] | 1.71 | 1.3 |
| CCCc1ccc(N(C)C(=O)[C@H](Cc2cc(F)cc(F)c2)NC(=O)NS(=O)(=O)N[C@@H](Cc2cc(F)cc(F)c2)C(=O)N(C)c2ccc(CCC)cc2)cc1 [Example 182B] | 0.02 | 13.4 |
| COc1ccc(N(C)C(=O)[C@H](Cc2ccccc2)NC(=O)Cn2c(=O)n(CC(=O)N[C@@H](Cc3ccccc3)C(=O)N(C)c3ccc(OC)cc3)c3c(Cl)cccc32)cc1 [Example 73] | 0.07 | 39.9 |
| COc1ccc(N(C)C(=O)[C@H](Cc2ccccc2)NC(=O)Cc2ccccc2CC(=O)N[C@@H](Cc2ccccc2)C(=O)N(C)c2ccc(OC)cc2)cc1 [Example 38] | 0.55 | 45 |
| Cc1nc2c(F)c(N(C)C(=O)[C@H](Cc3cc(F)cc(F)c3)NC(=O)NS(=O)(=O)N[C@@H](Cc3cc(F)cc(F)c3)C(=O)N(C)c3ccc4sc(C)nc4c3F)ccc2s1 [Example 239] | 0.86 | ≥ 100 |
| COc1ccc(N(C)C(=O)[C@H](Cc2cc(F)cc(F)c2)NC(=O)CN2c3ccccc3N(CC(=O)N[C@@H](Cc3cc(F)cc(F)c3)C(=O)N(C)c3ccc(OC)cc3)S2(=O)=O)cc1 [Example 34] | 0.01 | ≥ 100 |
| CN(C(=O)[C@H](Cc1cc(F)cc(F)c1)NC(=O)NS(=O)(=O)N[C@@H](Cc1cc(F)cc(F)c1)C(=O)N(C)c1ccc2sc(=O)n(C)c2c1)c1ccc2sc(=O)n(C)c2c1 [Example 237] | 0.27 | 71.9 |
| COc1ccc(N(C)C(=O)[C@H](Cc2cc(F)cc(F)c2)NC(=O)Cn2c(=O)n(CC(=O)N[C@@H](Cc3cc(F)cc(F)c3)C(=O)N(C)c3ccc(OC)cc3)c3cc(OC)ccc32)cc1 [Example 84] | 0.04 | 6.9 |
| C=CCN(C(=O)[C@H](Cc1cc(F)cc(F)c1)NC(=O)NS(=O)(=O)N[C@@H](Cc1cc(F)cc(F)c1)C(=O)N(CC=C)c1ccc2scnc2c1)c1ccc2scnc2c1 [Example 140] | 0.1 | 32.7 |
| CCN(C(=O)[C@H](Cc1cc(F)cc(F)c1)NC(=O)CN1c2ccccc2N(CC(=O)N[C@@H](Cc2cc(F)cc(F)c2)C(=O)N(CC)c2ccc3oc(=O)n(CC)c3c2)S1(=O)=O)c1ccc2oc(=O)n(CC)c2c1 [Example 155] | 2.13 | ≥ 33.3 |
| CN(C(=O)[C@H](Cc1cc(F)cc(F)c1)NC(=O)NS(=O)(=O)N[C@@H](Cc1cc(F)cc(F)c1)C(=O)N(C)c1ccc(C2CC2)nc1)c1ccc(C2CC2)nc1 [Example 181] | 0.02 | 85.8 |
| COc1ccc(N(C)C(=O)[C@H](Cc2ccccc2)NC(=O)c2ccccc2-c2ccccc2C(=O)N[C@@H](Cc2ccccc2)C(=O)N(C)c2ccc(OC)cc2)cc1 [Example 79] | 1.4 | ≥ 100 |
| COc1ccc(N(C)C(=O)[C@H](Cc2ccccc2)NC(=O)c2cc(Br)cc(C(=O)N[C@@H](Cc3ccccc3)C(=O)N(C)c3ccc(OC)cc3)c2)cc1 [Example 110] | 0.21 | ≥ 100 |
| COc1ccc(N(C)C(=O)[C@H](Cc2ccccc2)NC(=O)CC(C)(C)C(=O)N[C@@H](Cc2ccccc2)C(=O)N(C)c2ccc(OC)cc2)cc1 [Example 30] | 4.96 | 31.2 |
| COc1ccc(N(C)C(=O)[C@H](Cc2ccccc2)NC(=O)N[C@@H](Cc2ccccc2)C(=O)N(C)c2ccc(OC)cc2)cc1 [Example 1] | 2.86 | 23.1 |
